Data as given in ChEMBL document CHEMBL5576046, “Replacement of sulfonamide by sulfoximine within a helicase-primase inhibitor with restricted flexibility” (Bioorg Med Chem Lett, 2024).

How the values were obtained:
Format in all cases: functional, organism-based
Human alphaherpesvirus 1 [1] = assay: Antiviral activity against HSV-1 by CPE assay
Human alphaherpesvirus 2 [2] = assay: Antiviral activity against HSV-2
Human alphaherpesvirus 1 [3] = assay: Antiviral activity against HSV-1
Human alphaherpesvirus 2 [4] = assay: Antiviral activity against HSV-2 infected in human ARPE-19 cells assessed as inhibition of viral replication incubated for 16 hrs by fluorescence based analysis; conditions: Human alphaherpesvirus 2, ARPE-19, 16 h

Row | SMILES | IC50 (Human alphaherpesvirus 2 [2]; Human alphaherpesvirus 2) | IC50 (Human alphaherpesvirus 2 [4]) | IC50 (Human alphaherpesvirus 2 [2]) | IC50 (Human alphaherpesvirus 1 [1]) | further results
1 | Cc1nc(N(C)C(=O)[C@@H]2Cc3ccc(-c4ccccn4)cc3C2)sc1S(N)(=O)=O |  |  |  |  | IC50 (Human alphaherpesvirus 1 [1]; Human alphaherpesvirus 1): 7 nM
2 | Cc1nc(N(C)C(=O)[C@H]2Cc3ccc(-c4cc(F)ccc4F)cc3C2)sc1S(N)(=O)=O | 16000 nM |  |  |  | IC50 (Human alphaherpesvirus 1 [1]; Human alphaherpesvirus 1): 2000 nM
3 | Cc1nc(N(C)C(=O)Cc2ccc(-c3cc(F)ccc3F)cc2)sc1S(C)(=N)=O (stereo unspecified) | 28 nM |  |  |  | IC50 (Human alphaherpesvirus 1 [3]): 19 nM
4 | NS(=O)(=O)c1cc2c(cc1F)CCN2C(=O)[C@@H]1Cc2ccc(-c3cc(F)ccc3F)cc2C1 |  | 12 nM |  |  | 
5 | CS(=N)(=O)c1cc2c(cc1F)CCN2C(=O)[C@@H]1Cc2ccc(-c3ccccn3)cc2C1 (stereo partly specified) |  | 37 nM |  |  | 
6 | Cc1nc(N(C)C(=O)[C@@H]2Cc3ccc(-c4cc(F)ccc4F)cc3C2)sc1S(N)(=O)=O | 16 nM |  |  |  | IC50 (Human alphaherpesvirus 1 [1]; Human alphaherpesvirus 1): 1 nM
7 | CS(=N)(=O)c1cc2c(cc1F)CCN2C(=O)[C@@H]1Cc2ccc(-c3cc(F)ccc3F)cc2C1 (stereo partly specified) |  | 48 nM |  |  | 
8 | Cc1nc(N(C)C(=O)C2Cc3ccc(-c4cc(F)ccc4F)cc3C2)sc1S(C)(=N)=O (stereo in doubt; 2b) |  |  | 1250 nM | 300 nM | 
9 | NS(=O)(=O)c1cc2c(cc1F)CCN2C(=O)[C@@H]1Cc2ccc(-c3ccccn3)cc2C1 |  | 6 nM |  |  | 
10 | Cc1nc(N(C)C(=O)C2Cc3ccc(-c4cc(F)ccc4F)cc3C2)sc1S(C)(=N)=O (stereo in doubt; 2d) |  |  | 50000 nM | 8000 nM | 
11 | Cc1nc(N(C)C(=O)C2Cc3ccc(-c4cc(F)ccc4F)cc3C2)sc1S(C)(=N)=O (stereo in doubt; 2a) |  |  | 25000 nM | 25000 nM | 
12 | Cc1nc(N(C)C(=O)C2Cc3ccc(-c4cc(F)ccc4F)cc3C2)sc1S(C)(=N)=O (stereo in doubt; 2c) |  |  | 2000 nM | 400 nM | 
13 | Cc1nc(N(C)C(=O)Cc2ccc(-c3ccccn3)cc2)sc1S(N)(=O)=O [PRITELIVIR] | 20 nM |  |  |  | IC50 (Human alphaherpesvirus 1 [3]): 20 nM
